In patent publication US20230061083A1, “KRAS G12C INHIBITOR COMPOUND AND USE THEREOF” (Evopoint Biosciences Co., Ltd., priority 2019, published 2023):

Assays:
[1] = Plasma protein binding (PPB), RED plate dialysis, mouse plasma; type: in vitro ADME; details: 37° C., read-out: PPB (% free state) M
Method: (§1) Human (H), Rat (R) and Mouse (M) Plasma Protein Binding (PPB)
(§2) A test compound and a positive control were each mixed with blank plasma to a final concentration of 1 μM. The mixture was added to a RED plate plasma sample chamber, followed by addition of a dialysis buffer in the buffer chamber. The sample was prepared in triplicate for each compound. The chambers were sealed, and the plate was incubated at 37° C. with shaking at 60 rpm for 5 h. After incubation, the samples were transferred out of the plasma chamber and the buffer chamber and treated as shown in Table 5. After centrifugation at 5594 g for 15 min, the supernatant was collected and analyzed by LC/MS/MS.
(§3) The compound concentration in each sample was expressed in terms of the ratio between peak areas (ratio of peak area of compound to peak area of internal standard) by mass spectrometry analysis, and the plasma protein binding was calculated according to the following formulas.
(§4) % free state=(buffer chamber peak area ratio/plasma chamber peak area ratio)×100%
(§5) % bound state=100%−% free state

[2] = Plasma protein binding (PPB), RED plate dialysis, rat plasma; type: in vitro ADME; details: 37° C., read-out: PPB (% free state) R
Method: as §1, §2, §3, §4, §5

[3] = Plasma protein binding (PPB), RED plate dialysis, human plasma; type: in vitro ADME; details: 1 μM, 37° C., 5 h, read-out: PPB (% free state) H
Method: as §1, §2, §3, §4, §5

[4] = tested on: ERK phosphorylation in H358 cells; experiment: In-cell western blot assay for ERK phosphorylation in H358 cells; type: cell-based; details: Homo sapiens, NCI-H358, 10000 nM to 0.051 nM, 3-fold dilution, read-out: H358 p-ERK IC50
Method: In-Cell Western Blot Assay for ERK Phosphorylation in H358 Cells
H358 cells were thawed and pre-cultured for 3 days to be in a good state (RPMI 1640+10% FBS+1% P/S). The cells were plated on to a 384-well plate, and a test compound, positive control compounds (AMG510 and isomers thereof) and a negative control were added. The compound was at concentrations from 10000 nM to 0.051 nM. 3-fold dilution was performed. The mixture was well mixed and incubated at 37° C. and 5% CO2. The cells were washed with PBS and suspended in methanol. After another washing with PBS, a blocking buffer was added. After 1 h of blocking at room temperature, a primary antibody mixture (rabbit anti pERK, mouse anti GAPDH) was added, followed by overnight incubation at 4° C. The cells were washed 3 times with PBST, and a secondary antibody mixture (goat anti rabbit 800CW and goat anti mouse 680RD) was added, followed by incubation at room temperature in the dark. The 384-well plate was reversed and centrifuged at 1000 rpm for 1 min, and read on an Odyssey CLx fluorescence imaging system for fluorescence signal values, which was corrected using DMSO and ARS1620. The specific calculation is as follows:
Relative Signal=Signal Value(total channel 800)/Signal Value(total channel 700)
Relative pERK=(Sample−Ave_L)/(Ave_H−Ave_L).
The IC50 values of the compounds were calculated using a four-parameter fitting algorithm, specifically as follows:
Y=Bottom+(Top−Bottom)/(1+10^((Log IC50−X)×HillSlope))

[5] = molecular target: KRAS G12C protein (GDP-KRAS-4B-G12C) (Homo sapiens, UniProt P01116, G12C); experiment: Assay for binding rate to KRAS G12C protein by LC-MS method; details: 3 uM compound; for Binding rate to KRAS G12C protein (LC-MS POC, %) 3 uM/5 min: 5 min incubation at room temperature; for Binding rate to KRAS G12C protein (LC-MS POC, %) 3 uM/30 min: 30 min incubation at room temperature
Method: Assay for Binding Rate to KRAS G12C Protein by LC-MS Method
A 10 mM stock solution of a test compound in DMSO was prepared. […] An equal volume of GDP buffer (20 mM Hepes, pH 7.5, 50 mM NaCl, 0.5 mM MgCl2, 10 mM EDTA, 2 mM DTT, GDP) was added to prepare KRASG12C protein loaded with GDP.
After incubation at room temperature for 5 min and 30 min, the reaction was terminated by addition of 5 μL of 5% formic acid. After being centrifuged at 15,000 rpm for 10 min, the mixture was subjected to LC-MS analysis and data analysis.
The percent binding of a test compound to KRASG12C protein was calculated as: Percent binding to KRAS G12C (%)=peak height of conjugate of test compound and KRAS G12C protein/[peak height of conjugate of test compound and KRAS G12C protein+peak height of free KRAS G12C protein] x 100.

plasma proteins = experiment: Plasma protein binding (PPB), RED plate dialysis, human plasma; type: in vitro ADME
Method: as §1, §2, §3, §4, §5

Structure (SMILES): C=CC(=O)N1CCN(c2nc(=O)n(-c3c(C)ccnc3C(C)C)c3nc(-c4c(O)cccc4F)c(F)cc23)[C@@H](C)C1 [SZ-014004A, reference compound]
- fraction unbound at 5 h, 1 μM [1]: 0.112
- fraction unbound at 5 h, 1 μM [2]: 0.145
- fraction unbound at 5 h, 1 μM [3]: 0.068
- IC50 [4]: 12 nM

Structure (SMILES): C=CC(=O)N1CCN(c2nc(=O)n(-c3c(C)ccnc3C(C)C)c3c2cc(F)c(-c2ccccc2O)[n+]3[O-])[C@@H](C)C1 [SZ-014010A/B]
- Binding rate to KRAS G12C protein (LC-MS POC, %) 3 uM/5 min [5]: 47.7%
- Binding rate to KRAS G12C protein (LC-MS POC, %) 3 uM/30 min [5]: 84.9%
- IC50 [4]: 442 nM

Structure (SMILES): C=CC(=O)N1CCN(c2nc(=O)n(-c3c(C)ccnc3C(C)C)c3c2cc(F)c(-c2ccccc2F)[n+]3[O-])[C@@H](C)C1 [SZ-014011A/B]
- Binding rate to KRAS G12C protein (LC-MS POC, %) 3 uM/5 min [5]: 37.8%
- Binding rate to KRAS G12C protein (LC-MS POC, %) 3 uM/30 min [5]: 75.5%
- IC50 [4]: 405 nM

Structure (SMILES): C=CC(=O)N1CCN(c2nc(=O)n(-c3c(C(C)C)ncnc3C(C)C)c3c2cc(F)c(-c2cccc4ccccc24)[n+]3[O-])[C@@H](C)C1 [SZ-014013A/B]
- IC50 [4]: 36 nM

Structure (SMILES): C=CC(=O)N1CCN(c2nc(=O)n(-c3c(C(C)C)ncnc3C(C)C)c3c2cc(Cl)c(-c2ccccc2O)[n+]3[O-])[C@@H](C)C1 [SZ-014031A]
- IC50 [4]: 11.4 nM

Structure (SMILES): C=CC(=O)N1CCN(c2nc(=O)n(-c3c(C(C)C)ncnc3C(C)C)c3c2cc(F)c(-c2cccc(F)c2O)[n+]3[O-])[C@@H](C)C1 [SZ-014043]
- Binding rate to KRAS G12C protein (LC-MS POC, %) 3 uM/5 min [5]: 58.5%
- Binding rate to KRAS G12C protein (LC-MS POC, %) 3 uM/30 min [5]: 90.0%
- IC50 [4]: 494 nM

Structure (SMILES): C=CC(=O)N1CCN(c2nc(=O)n(-c3c(C(C)C)ncnc3C(C)C)c3c2cc(F)c(-c2cc(F)ccc2O)[n+]3[O-])[C@@H](C)C1 [SZ-014044]
- Binding rate to KRAS G12C protein (LC-MS POC, %) 3 uM/5 min [5]: 84.1%
- Binding rate to KRAS G12C protein (LC-MS POC, %) 3 uM/30 min [5]: 97.2%
- IC50 [4]: 145 nM

Structure (SMILES): [2H]c1c([2H])c([2H])c(-c2c(F)cc3c(N4CCN(C(=O)C=C)C[C@@H]4C)nc(=O)n(-c4c(C(C)C)ncnc4C(C)C)c3[n+]2[O-])c(O)c1[2H] [SZ-014051A/B]
- IC50 [4]: 44 nM

Structure (SMILES): C=CC(=O)N1CCN(c2nc(=O)n(-c3c(C(C)C)ncnc3C(C)C)c3c2cc(F)c(-c2c(F)cccc2F)[n+]3[O-])[C@@H](C)C1 [SZ-014053]
- Binding rate to KRAS G12C protein (LC-MS POC, %) 3 uM/5 min [5]: 85.6%
- Binding rate to KRAS G12C protein (LC-MS POC, %) 3 uM/30 min [5]: 100.0%
- fraction unbound at 5 h, 1 μM [1]: 0.377
- fraction unbound at 5 h, 1 μM [2]: 0.616
- molar concentration not bound to plasma proteins, times higher than reference compound SZ-014138 (plasma proteins; versus SZ-014138): no less than 4 times
- fraction unbound at 5 h, 1 μM [3]: 0.587
- IC50 [4]: 41 nM

Structure (SMILES): C=CC(=O)N1CCN(c2nc(=O)n(-c3c(C(C)C)ncnc3C(C)C)c3c2cc(F)c(-c2c(F)ccc(F)c2O)[n+]3[O-])[C@@H](C)C1 [SZ-014062AB]
- IC50 [4]: 207 nM

Structure (SMILES): C=CC(=O)N1CCN(c2nc(=O)n(-c3c(C)ccnc3C(C)C)c3c2cc(F)c(-c2c(F)cccc2F)[n+]3[O-])[C@@H](C)C1 [SZ-014077A/B]
- IC50 [4]: 191 nM

Structure (SMILES): C=CC(=O)N1CCN(c2nc(=O)n(-c3c(C(C)C)ncnc3C(C)C)c3c2cc(F)c(-c2c(F)cccc2Cl)[n+]3[O-])[C@@H](C)C1 [SZ-014082A/B]
- IC50 [4]: 60 nM

Structure (SMILES): C=CC(=O)N1CCN(c2nc(=O)n(-c3c(C)ccnc3C(C)C)c3c2cc(F)c(-c2c(O)cccc2F)[n+]3[O-])[C@@H](C)C1 [SZ-014089A/B]
- IC50 [4]: 143 nM

Structure (SMILES): C=CC(=O)N1CCN(c2nc(=O)n(-c3c(C(C)C)ncnc3C(C)C)c3c2cc(Cl)c(-c2ccccc2F)[n+]3[O-])[C@@H](C)C1 [SZ-014108A/B]
- IC50 [4]: 9.4 nM

Structure (SMILES): C=CC(=O)N1CCN(c2nc(=O)n(-c3c(C(C)C)ncnc3C(C)C)c3c2cc(F)c(-c2ccccc2O)[n+]3[O-])[C@@H](C)C1 [SZ-014111A/B]
- IC50 [4]: 31 nM

Structure (SMILES): C=CC(=O)N1CCN(c2nc(=O)n(-c3c(C(C)C)cccc3C(C)C)c3c2cc(Cl)c(-c2c(O)cccc2F)[n+]3[O-])[C@@H](C)C1 [SZ-014116AB]
- IC50 [4]: 2.8 nM

Structure (SMILES): C=CC(=O)N1CCN(c2nc(=O)n(-c3c(CC)ncnc3CC)c3c2cc(F)c(-c2c(F)cccc2F)[n+]3[O-])[C@@H](C)C1 [SZ-014119]
- Binding rate to KRAS G12C protein (LC-MS POC, %) 3 uM/5 min [5]: 20.8%
- Binding rate to KRAS G12C protein (LC-MS POC, %) 3 uM/30 min [5]: 79.2%
- IC50 [4]: 691 nM

Structure (SMILES): C=CC(=O)N1CCN(c2nc(=O)n(-c3c(C(C)C)ncnc3C(C)C)c3c2cc(F)c(-c2ccccc2)[n+]3[O-])[C@@H](C)C1 [SZ-014129]
- fraction unbound at 5 h, 1 μM [1]: 0.336
- fraction unbound at 5 h, 1 μM [2]: 0.517
- molar concentration not bound to plasma proteins, times higher than reference compound SZ-014141 (plasma proteins; versus SZ-014141): no less than 10 times
- fraction unbound at 5 h, 1 μM [3]: 0.455
- IC50 [4]: 90 nM

Structure (SMILES): C=CC(=O)N1CCN(c2nc(=O)n(-c3c(C(C)C)cccc3C(C)C)c3c2cc(F)c(-c2ccccc2)[n+]3[O-])[C@@H](C)C1 [SZ-014130]
- fraction unbound at 5 h, 1 μM [1]: 0.039
- fraction unbound at 5 h, 1 μM [2]: 0.188
- molar concentration not bound to plasma proteins, times higher than reference compound SZ-014142 (plasma proteins; versus SZ-014142): no less than 30 times
- fraction unbound at 5 h, 1 μM [3]: 0.074
- IC50 [4]: 139 nM

Structure (SMILES): C=CC(=O)N1CCN(c2nc(=O)n(-c3c(C)ccnc3CC)c3c2cc(F)c(-c2c(F)cccc2F)[n+]3[O-])[C@@H](C)C1 [SZ-014131]
- IC50 [4]: 2090 nM

Structure (SMILES): C=C(F)C(=O)N1CCN(c2nc(=O)n(-c3c(C(C)C)ncnc3C(C)C)c3nc(-c4c(F)cccc4F)c(F)cc23)[C@@H](C)C1 [SZ-014137, reference compound]
- fraction unbound at 5 h, 1 μM [1]: 0.005
- fraction unbound at 5 h, 1 μM [2]: 0.114
- fraction unbound at 5 h, 1 μM [3]: 0.076
- IC50 [4]: 3540 nM

Structure (SMILES): C=CC(=O)N1CCN(c2nc(=O)n(-c3c(C(C)C)ncnc3C(C)C)c3nc(-c4c(F)cccc4F)c(F)cc23)[C@@H](C)C1 [SZ-014138, reference compound]
- fraction unbound at 5 h, 1 μM [1]: 0.011
- fraction unbound at 5 h, 1 μM [2]: 0.203
- fraction unbound at 5 h, 1 μM [3]: 0.129
- IC50 [4]: 34 nM

Structure (SMILES): C=CC(=O)N1CCN(c2nc(=O)n(-c3c(C(C)C)cccc3C(C)C)c3nc(-c4c(F)cccc4F)c(F)cc23)[C@@H](C)C1 [SZ-014139, reference compound]
- fraction unbound at 5 h, 1 μM [1]: 0.007
- fraction unbound at 5 h, 1 μM [2]: 0.022
- fraction unbound at 5 h, 1 μM [3]: 0.015
- IC50 [4]: 81 nM

Structure (SMILES): C=CC(=O)N1CCN(c2nc(=O)n(-c3c(C(C)C)ncnc3C(C)C)c3nc(-c4ccccc4)c(F)cc23)[C@@H](C)C1 [SZ-014141, reference compound]
- fraction unbound at 5 h, 1 μM [1]: 0.008
- fraction unbound at 5 h, 1 μM [2]: 0.127
- fraction unbound at 5 h, 1 μM [3]: 0.04
- IC50 [4]: 170 nM

Structure (SMILES): C=CC(=O)N1CCN(c2nc(=O)n(-c3c(C(C)C)cccc3C(C)C)c3nc(-c4ccccc4)c(F)cc23)[C@@H](C)C1 [SZ-014142, reference compound]
- fraction unbound at 5 h, 1 μM [1]: 0.047
- fraction unbound at 5 h, 1 μM [2]: 0.008
- fraction unbound at 5 h, 1 μM [3]: 0.002
- IC50 [4]: 296 nM
